From patent US8524748B2, “Heteroalkyl biphenyl antagonists of prostaglandin D2 receptors” (Panmira Pharmaceuticals, LLC, priority 2008, dated 2013)

Target: T1, human DP2 receptor (Homo sapiens, UniProt Q9Y5Y4)
T1 construct: expressed in transfected cells; membranes prepared from them
T1 sequence (Q9Y5Y4 1-395): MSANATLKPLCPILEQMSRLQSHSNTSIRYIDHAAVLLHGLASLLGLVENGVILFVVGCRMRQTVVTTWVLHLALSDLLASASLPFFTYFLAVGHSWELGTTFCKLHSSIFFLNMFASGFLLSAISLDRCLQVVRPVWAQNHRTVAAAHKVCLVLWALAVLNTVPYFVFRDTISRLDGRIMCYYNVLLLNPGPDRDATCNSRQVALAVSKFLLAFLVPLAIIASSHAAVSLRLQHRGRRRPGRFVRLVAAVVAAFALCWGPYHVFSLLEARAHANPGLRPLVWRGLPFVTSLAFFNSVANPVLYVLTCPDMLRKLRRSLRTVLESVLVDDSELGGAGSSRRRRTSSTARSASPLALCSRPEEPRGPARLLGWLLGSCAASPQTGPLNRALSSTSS
Assay: DP2/CRTH2 radioligand binding assay using [3H]PGD2
Conditions: membranes of HEK293 cells stably expressing recombinant human DP2; 1 nM [3H]PGD2; read-out: hDP2 IC50
Experimental: The ability of a compound to bind to the human DP2 receptor is assessed via a radioligand binding assay using [^3H]PGD2. HEK293 cells stably expressing recombinant human DP2 are resuspended in 10 mM Hepes, 7.4 containing 1 mM DTT, lysed and centrifuged at 75,000×g to pellet the membranes. The membranes are resuspended in 10 mM Hepes, 7.4 containing 1 mM DTT and 10% glycerol to approximately 5 mg protein/ml. Membranes (2-10 μg protein/well) are incubated in 96-well plates with 1 nM [^3H]PGD2 and test compound in Assay Buffer (50 mM Hepes, 10 mM MnCl2, 1 mM EDTA, plus or minus 0.2% human serum albumin, pH 7.4) for 60 minutes at room temperature. The reactions are terminated by rapid filtration through Whatman GF/C glass fibre filter plates. The filter plates were pre-soaked in 0.33% polythylenimine for 30 minutes at room temperature then washed in Wash Buffer (50 mM Hepes, 0.5 M NaCl pH 7.4) prior to harvesting. After harvesting, the filter plates are washed 3 times with 1 ml cold Wash Buffer then dried. Scintillant is then added to the plates and the radioactivity retained on the filters is determined on a Packard TopCount (Perkin Elmer). Specific binding is determined as total radioactive binding minus non-specific binding in the presence of 10 μM PGD2. IC50s were determined using GraphPad prism analysis of drug titration curves.

IC50	Structure (SMILES)
< 1 µM	CCN(Cc1ccccc1)C(=O)OCc1cc(C(F)(F)F)ccc1-c1cc(CC(=O)O)ccc1F [Compound 1-16, {2′-[(Benzyl-ethyl-carbamoyloxy)-methyl]-6-fluoro-4′-trifluoromethyl-biphenyl-3-yl}-acetic acid]
> 10 µM	COc1ccc(CC(=O)O)cc1-c1ccc(C(F)(F)F)cc1C[S+]([O-])c1nnc(C)s1 (centres unmarked) [Compound 1-10, [6-Methoxy-2′-(5-methyl-[1,3,4]thiadiazole-2-sulfinylmethyl)-4′-trifluoromethyl-biphenyl-3-yl]-acetic acid]
1 to 10 µM	COc1ccc(CC(=O)O)cc1-c1ccc(C(F)(F)F)cc1CS(=O)(=O)c1nnc(C)s1 [Compound 1-14, [6-Methoxy-2′-(5-methyl-[1,3,4]thiadiazole-2-sulfonylmethyl)-4′-trifluoromethyl-biphenyl-3-yl]-acetic acid]
1 to 10 µM	COc1ccc(CC(=O)O)cc1-c1ccc(C(F)(F)F)cc1CS(=O)(=O)c1ccccc1 [Compound 1-11, (2′-Benzenesulfonylmethyl-6-methoxy-4′-trifluoromethyl-biphenyl-3-yl)-acetic acid]
1 to 10 µM	COc1ccc(CC(=O)O)cc1-c1ccc(C(F)(F)F)cc1COc1ccccc1 [Compound 1-6, (6-Methoxy-2′-phenoxymethyl-4′-trifluoromethyl-biphenyl-3-yl)-acetic acid]
< 1 µM	COc1ccc(CC(=O)O)cc1-c1ccc(C(F)(F)F)cc1CSc1nnc(C)s1 [Compound 1-4, [6-Methoxy-2′-(5-methyl-[1,3,4]thiadiazol-2-ylsulfanylmethyl)-4′-trifluoromethyl-biphenyl-3-yl]-acetic acid]
> 10 µM	COc1ccc(CC(=O)O)cc1-c1ccc(C(F)(F)F)cc1CS(=O)(=O)C(C)(C)C [Compound 1-13, [6-Methoxy-2′-(2-methyl-propane-2-sulfonylmethyl)-4′-trifluoromethyl-biphenyl-3-yl]-acetic acid]
< 1 µM	COc1ccc(CC(=O)O)cc1-c1ccc(C(F)(F)F)cc1CSCc1ccccc1 [Compound 1-2, (2′-Benzylsulfanylmethyl-6-methoxy-4′-trifluoromethyl-biphenyl-3-yl)-acetic acid]
1 to 10 µM	CCN(Cc1ccccc1)C(=O)OCc1cc(C(F)(F)F)ccc1-c1cc(CC(=O)O)ccc1OC [Compound 1-15, {2′-[(Benzyl-ethyl-carbamoyloxy)-methyl]-6-methoxy-4′-trifluoromethyl-biphenyl-3-yl}-acetic acid]
> 10 µM	COc1ccc(CC(=O)O)cc1-c1ccc(C(F)(F)F)cc1C[S+]([O-])c1ccccc1 (centres unmarked) [Compound 1-7, (2′-Benzenesulfinylmethyl-6-methoxy-4′-trifluoromethyl-biphenyl-3-yl)-acetic acid]
< 1 µM	COc1ccc(CC(=O)O)cc1-c1ccc(C(F)(F)F)cc1CSc1ccccc1 [Compound 1-1, (6-Methoxy-2′-phenylsulfanylmethyl-4′-trifluoromethyl-biphenyl-3-yl)-acetic acid]
< 1 µM	O=C(O)CCn1c2c(c3ccccc31)C[C@H](NS(=O)(=O)c1ccc(F)cc1)CC2 [Ramatroban, reference compound]
1 to 10 µM	COc1ccc(CC(=O)O)cc1-c1ccc(C(F)(F)F)cc1CSC(C)(C)C [Compound 1-3, (2′-tert-Butylsulfanylmethyl-6-methoxy-4′-trifluoromethyl-biphenyl-3-yl)-acetic acid]
> 10 µM	COc1ccc(CC(=O)O)cc1-c1ccc(C(F)(F)F)cc1C[S+]([O-])Cc1ccccc1 (centres unmarked) [Compound 1-8, (6-Methoxy-2′-phenylmethanesulfinylmethyl-4′-trifluoromethyl-biphenyl-3-yl)-acetic acid]
> 10 µM	COc1ccc(CC(=O)O)cc1-c1ccc(C(F)(F)F)cc1C[S+]([O-])C(C)(C)C (centres unmarked) [Compound 1-9, [6-Methoxy-2′-(2-methyl-propane-2-sulfinylmethyl)-4′-trifluoromethyl-biphenyl-3-yl]-acetic acid]
1 to 10 µM	COc1ccc(CC(=O)O)cc1-c1ccc(C(F)(F)F)cc1CS(=O)(=O)Cc1ccccc1 [Compound 1-12, (6-Methoxy-2′-phenylmethanesulfonylmethyl-4′-trifluoromethyl-biphenyl-3-yl)-acetic acid]
1 to 10 µM	COc1ccc(CC(=O)O)cc1-c1ccc(C(F)(F)F)cc1CSCC(F)(F)F [Compound 1-5, [6-Methoxy-2′-(2,2,2-trifluoro-ethylsulfanylmethyl)-4′-trifluoromethyl-biphenyl-3-yl]-acetic acid]
